Here are results for 1 compound from patent publication US11674120B2, “Methods, kits, and compositions for enhancing cellular therapy” (University of Florida Research Foundation, Incorporated, priority 2016, dated 2023).

The structures appear in SMILES notation.

In the assay the test system is lymph nodes and spleens. The assay is described as follows: In vivo migration of PKH+ DCs to lymph nodes and spleen (immunofluorescence). Also noted: species or system C57BL/6 mice. The following applies: intradermal injection, 48 hours. The procedure:
Dendritic cells were cultured and loaded with sarcosine as described in Example 1. DCs were also loaded with PKH cell membrane dye. […] After 48 hours, the lymph nodes and spleens were collected from the mice and immunofluorescence was performed to visualize PKH+ cells (which are the injected DCs) and B220+ cells (which are B cells). […] There was vastly more migration to the lymph nodes/spleen.

For `CNCC(=O)O` [sarcosine, N-methylglycine], the “Increase of migration to the lymph nodes and the spleen over controls, on visual inspection” value was “more than two times, three times, four times more, five times and perhaps even more than ten-fold more than controls”.
